How the values were obtained:
[1] = system: bone marrow cell-derived macrophages (BMMs); assay: Cell viability of osteoclast progenitor cells (CCK-8); type: cell-based, mice; settings: 5 and 10 μg/ml, 2 days
Procedure: Specifically, 1.2×10^4 pieces of bone marrow cell-derived macrophages (BMMs) were placed in per well of a 96-well plate, and then cultured for 2 days in a medium containing M-CSF (60 ng/ […] ) in which hot water extract of Agastache rugosa extract (WEAR; 5, 10, 20, 33, 100 and 200 μg/ml), ethanol extract of Agastache rugosa (EEAR; 10, 33 and 100 μg/ml) or isoagastachoside (5 and 10 μg/ml) samples were added. Cell viability was determined by measuring absorbance at 450 nm using Cell counting Kit-8 (CCK-8, Dojindo Inc.), percentage of untreated controls and data are presented as mean±standard deviation, and statistical analysis was performed using one-way ANOVA with Dunnett test, **p<0.01.

[2] = system: differentiation of bone marrow cell-derived macrophages (BMMs) into osteoclasts; assay: Osteoclast differentiation of bone marrow cell-derived macrophages (M-CSF/RANKL, TRAP staining, osteoclast count); type: cell-based, mice; settings: compared with WEAR at the same concentration
Procedure: Specifically, bone marrow cells of mice were cultured in α-MEM medium containing M-CSF (60 ng/ml) and 10% FBS for 3 days to obtain bone marrow cell-derived macrophages (BMMs), which were used as osteoclast progenitor cells. To generate osteoclasts, 1×10^4 pieces of the obtained BMMs were placed in per well of a 96-well plate, cultured for 4 days in a medium containing M-CSF (60 ng/ml) and RANKL (50 ng/ml), and the BMM were treated with hot water extract of Agastache rugosa (WEAR; 10, 33, 100, 200 μg/ml) or ethanol extract of Agastache rugosa (EEAR; 10, 33, 100 μg/ml) under the same culture condition. After fixing the cells with 10% formalin, TRAP (Tartrate-resistant acid phosphatase) staining was performed using naphthol AS-MS phosphate and Fast red violet LB salt, and TRAP-positive cells having three or more nuclei (osteoclasts) were counted. Data are presented as mean±standard deviation, and statistical analysis was performed using one-way ANOVA with Dunnett test, **p<0.01.
IC50 (inhibitory concentration 50), the concentration showing 50% inhibition efficiency, was calculated using PraphPad Prism software.
Specifically, WEAR-PO, WEAR-ED, P0-3 kDA Fx, P0-10 kDA Fx, P0-30 kDA Fx, P0-100 kDA Fx, P0-300 kDA Fx […], respectively, and the osteoclast differentiation inhibitory effect was assessed in the same manner as in Example <3-1>.

**Q.** With COc1ccc(-c2cc(=O)c3c(O)cc(O[C@@H]4O[C@H](CO)[C@@H](O)[C@H](O)[C@H]4OC(C)=O)cc3o2)cc1 [isoagastachoside] as the compound, how does the “effect on cell survival” value [1] read?
**A.** no effect in cell survival

**Q.** What about the “inhibitory effect on osteoclast differentiation (in words)” value ([2]; 10 μg/ml) of the same compound?
**A.** inhibited osteoclast differentiation very significantly compared to WEAR at the same concentration

**Q.** And the “inhibitory effect on osteoclast differentiation (in words)” value ([2]; 5 and 10 μg/ml)?
**A.** better inhibitory effect on osteoclast differentiation than WEAR at the same concentration
